The values that follow come from article PMC5045448 (Analytical chemistry, 2016).

Where two headings read alike, the source gives them in different places. Marks after values point to notes of the source that are not given here.

Data set [1] relates to mAbs reported by He et al. Particulars: relative to artemisinin; cited from earlier work.
The next data set relates to mAb 3H7A10. Kind of data set: Indirect competitive ELISA. The data set is classed as binding, Balb/c mice. Particulars: for Cross-reactivity: (IC50 of artemisinin/IC50 of other compound) × 100; for cross reactivities: artemisinin-specific mAb from position 9 hapten; for competitive inhibition: mAb 3H7A10, up to 20,000 ng mL^−1.
Data set [2] deals with polyclonal antibodies prepared by Song et al. Particulars: cited from earlier work.
For data set [3], the system named is mAbs raised by artelinic acid-BSA conjugate. Particulars: cited from earlier work.
The nature of the next data set: in vivo. Set-up: species or system Sprague-Dawley rats. Particulars: Sprague-Dawley, rat, ip, 10 mg/kg.
For data set [4] the following is noted: goat, cited from earlier work.
For data set [5] the following is noted: humans, cited from earlier work.
The conditions of data set [6]: rats, cited from earlier work.
For data set [7] the following is noted: dogs, cited from earlier work.
For data set [8], the system named is mAbs generated by Tanaka et al. Particulars: relative to artemisinin; cited from earlier work.

As for `CO[C@H]1O[C@@H]2O[C@@]3(C)CC[C@H]4[C@H](C)CC[C@@H]([C@H]1C)[C@@]24OO3` [Artemether], the results for the Cross-reactivity (in data set [1]; in the data set on mAb 3H7A10 (mAb 3H7A10)) were 3% and 0%, respectively. For the same compound, the cross reactivities result in the data set with mAb 3H7A10 is recorded as “almost no cross reactivities”. In the data set on mAb 3H7A10 (icELISA), the competitive inhibition result is “No competitive inhibition”. For the same compound, the “recognition by polyclonal antibodies” value in data set [2] is “equally well”. Also, in data set [3], the “binding by mAbs” value was “approximately the same level”.
`C[C@@H]1CC[C@H]2[C@@H](C)C(=O)O[C@@H]3O[C@@]4(C)CC[C@@H]1[C@]32OO4` [Artemisinin]: in “in vivo”, the AUC(0-t) is 43.7 ng·h/mL, the concentration peaked (Cmax) at 29.1 ± 3 ng/mL, the Tmax is 5 min and the half-life is 22.8 min. Further, the absorption and bioavailability result in data set [4] (large amount of unabsorbed artemisinin eliminated in feces) was “slow absorption and low bioavailability”. In [5] (another study), the AUC was 754 ng·h/mL and the Cmax is 167 ng/mL. In addition, in data set [5] (one study), the area under the curve (AUC) is reported as 2,611 ng mL^−1 h and the Cmax is 623 ng/mL. For the same compound, in [5], the half-life is reported as ~ 2 h. Moreover, in the data set on mAb 3H7A10 (mAb 3H7A10), the Cross-reactivity is recorded as 100 ± 4.6%. Besides, the IC50 with mAb 3H7A10 (icELISA, mAb 3H7A10, means of triplicate ± SD, NI = no inhibition observed with up to 20,000 ng mL^−1 of the analytes) is 2.60 ±0.12 ^b ng/mL. Further, the “binding by mAbs” value in [3] is “approximately the same level”. For the same compound, the half-life in data set [6] (in all these studies) was ~ 30 min. Further, in data set [6] (intraperitoneal injection, 10 mg/kg), the AUC0-24h was 0.132 µM/h. Further, the AUC0-3h in data set [6] (oral administration, 10 mg/kg) was 36.4 ng·h/mL. Further, in data set [7] (oral), the bioavailability result is given as “bioavailability appeared low”.
Consider `C[C@H]1[C@H](OC(=O)CCC(=O)O)O[C@@H]2O[C@@]3(C)CC[C@H]4[C@H](C)CC[C@@H]1[C@@]24OO3` [Artesunate], for which the Cross-reactivity in [1] is reported as 650%; in data set [8], 630%; in the data set with mAb 3H7A10 (mAb 3H7A10) it was 0%. The cross reactivities entry in the data set on mAb 3H7A10 was “almost no cross reactivities”. In addition, the competitive inhibition entry with mAb 3H7A10 (icELISA) is “No competitive inhibition”. In [2], the “recognition by polyclonal antibodies” value was “equally well”.
With `CCN(CC)CCCC(C)Nc1ccnc2cc(Cl)ccc12.O=P(O)(O)O.O=P(O)(O)O` (stereo not drawn) [Chloroquine diphosphate salt], the Cross-reactivity in the data set on mAb 3H7A10 (mAb 3H7A10) is listed as 0%.
For `C[C@H]1[C@@H](O)O[C@@H]2O[C@@]3(C)CC[C@H]4[C@H](C)CC[C@@H]1[C@@]24OO3` [Dihydroartemisinin], the “time of peak of the metabolite” value in data set [4] (after artemisinin) was 12 h. In addition, the figures for the Cross-reactivity (in data set [1]; in [8]; in the data set on mAb 3H7A10 (mAb 3H7A10)) were 57%, 30% and 0%, respectively. For the same compound, the cross reactivities entry in the data set with mAb 3H7A10 is listed as “almost no cross reactivities”. Also, the competitive inhibition result in the data set on mAb 3H7A10 (icELISA) is “No competitive inhibition”. In addition, the “recognition by polyclonal antibodies” value in data set [2] is listed as “equally well”. Moreover, in data set [7] (oral artemisinin), the blood concentrations was below 100 nM.
Consider `CCCCN(CCCC)CC(O)c1cc(Cl)cc2c1-c1ccc(Cl)cc1/C2=C/c1ccc(Cl)cc1` (stereo not drawn) [Lumefantrine], for which the Cross-reactivity in the data set on mAb 3H7A10 (mAb 3H7A10) was 0%.
Still for that read-out and setting: the figure for `COc1cc(NC(C)CCCN)c2ncccc2c1` (stereo not drawn) [Primaquine phosphate] is 0%.
Still for that read-out and setting: the figure for `CCc1nc(N)nc(N)c1-c1ccc(Cl)cc1` [Pyrimethamine] is 0%.
On the same count and under the same terms, as for `C=C[C@H]1C[N@@]2CC[C@H]1C[C@H]2[C@H](O)c1ccnc2ccc(OC)cc12` [Quinine], the figure is 0%.
